Reference: patent US8952025B2, “Multifunctional radical quenchers and their uses” (Arizona Board of Regents, A Body Corporate of the State of …, priority 2010, dated 2015)
Entries after “also recorded” stand apart in the source; their conditions may differ. Read-outs that look alike come from different tables or passages of the source.

Columns and labels:
[1] = test system: CEM cells; assay: Trypan blue cell viability assay, DEM-treated cells; format: cell-based, human; settings: for EC50: CEM cells, pre-treatment 2 h, diethylmaleate 3 h, trypan blue exclusion, read-out: EC50 (effective concentration that prevents 50% of cell death); for maintaining cell viability (trypan blue exclusion): overnight incubation, then 5 mM DEM, 3 h
Method: Cell viability determined by trypan blue exclusion assay: This technique was used to assess the cytoprotective effects of the invention compounds in cultured cells pharmacologically treated to induce cell death by GSH depletion. DEM was used to deplete cellular GSH and induce oxidative stress. The viability of DEM-treated CEM cells was determined by their ability to exclude the dye trypan blue. Viable cells exclude trypan blue; whereas, non-viable cells take up the dye and stain blue. Briefly, CEM cells were grown in RPMI 1640 medium (GIBCO, Grand island, N.Y., USA) supplemented with 10% fetal calf serum, 2 mM glutamine (HyClone, South Logan, Utah, USA), 1% penicillin-streptomycin mix (Cellgro, Manassan, Va., USA). Cells were seeded at a density of 1×10^6 cells/mL and treated with different concentrations of the invention compounds. Cells were incubated at 37° C. in a humidified atmosphere of 5% CO2 in air for three hours with 5 mM DEM. Cell viability was determined by staining cells with 0.4% trypan blue using a hemacytometer. At least 500 cells were counted for each experimental group. At the time of assay, >95% of DEM-treated cells were trypan blue positive; whereas, in non-DEM treated control cell cultures >95% cells were viable. Cell viability was expressed as the percentage of control. Data are expressed as means±S.E.M (n=3).

[2] = test system: CEM leukemia cells; assay: Mitochondrial membrane potential (Δψm) assay, TMRM, FACS; format: cell-based, human; settings: for preserving mitochondrial membrane potential Δψm: 1, 2.5 or 5 μM
Method: Measurement of Mitochondrial Membrane Potential (Δψm)(FACS). For the determination of Δψm, CEM leukemia cells were pre-treated with or without the test compounds. The cells were treated with 5 mM DEM for 120 minutes, collected by centrifugation at 300×g for 3 minutes and then washed twice with phosphate buffered saline. The cells were re-suspended in HSSB buffer and incubated at 37° C. in the dark for 15 minutes with 250 nM TMRM (a cationic dye which accumulates within mitochondria in accordance with the Δψm Nernst potential). Cells were collected by centrifugation at 300×g for 3 minutes and then washed twice with phosphate buffered saline. The samples were analyzed immediately by flow cytometry using 488 nm excitation laser and the FL2-H channel. The results obtained were verified in three independent experiments. The protonophore FCCP (30 μM) was used to dissipate the chemiosmotic proton gradient (ΔμH^+) and served as a control for loss of Δψm. In each analysis, 10,000 events were recorded.

[3] = C11-BODIPY581/591 oxidation lipid peroxidation assay in liposomes; settings: for quenching of lipid peroxidation (retention of C11-BODIPY581/591 fluorescence): 10 mM AAPH, phospholipid liposomes, phosphate buffer, 40° C.
Method: To overcome the problem of spectral overlap using cis-parinaric acid, a fluorescence assay for lipid peroxidation using a lipophilic probe belonging to the BODIPY class of fluorescent dyes was used. C11-BODIPY^581/591 (4,4-difluoro-5(4-phenyl-1,3-butadienyl)-4-bora-3a,4a-diaza-s-indacene-3-propionic acid) fluorescence shifts from red to green upon oxidation. C11-BODIPY^581/591 (Molecular Probes, Eugene, Oreg., USA) stock solution concentrations were determined by measuring the absorption of C11-BODIPY^581/591 at 582 nm using a molar extinction coefficient of 140,000 mol^−1 cm^−1(R. P. Haugland, (1999) Handbook of Fluorescent Probes and Research Chemicals, Molecular Probes, Inc., Eugene, Oreg.). The lipid peroxidation inducer 2,2′-Azobis (2-amidino-propane dihydrochloride) (AAPH) and the antioxidant compound α-tocopherol were obtained from Sigma (St. Louis, Mo., USA). Phospholipid bilayers were prepared from 1-stearoyl-2-oleoyl-phosphatidylcholine (SOPC) and 1,2-dilinoleoyl-phosphatidylcholine (DLPC) and were purchased from Avanti® polar lipids, INC (Alabaster, Ala., USA).
Phosphotidylcholine (PC) liposomes were prepared as described before (Guey-Shuang et al. (1982) Lipids. 17, 403-413). Briefly, DLPC (25 mg) and SOPC (25 mg) were dissolved in chloroform and the solvent was removed by nitrogen evaporation (˜2 hours to give a thin film of PC in a round bottom flask. The lipid film was hydrated with 50 mL of 10 mM Tris-HCl (pH 7.4), 100 mM KCl, shaken and sonicated for 15 seconds. The liposomes obtained were filtered several times through 0.2 μM membrane filter.
C11 BODIPY^581/591 was incorporated into liposomes and oxidized by peroxyl radicals derived from the decomposition of AAPH in presence and absence of the compounds. […] Liposomes were pre-incubated for 10 min with 200 nM C11 BODIPY^581/591 to allow their incorporation into the lipid phase of the liposomes. After the addition of AAPH (10 mM) the decay of red fluorescence was followed at λ exc=570 nm, λ em=600 nm. Relative fluorescence units were normalized to 100% intensity. Results obtained were verified by repeating experiments N=3 independent experiments.

[4] = test system: Human CEM leukemia cells; assay: Live/Dead Viability/Cytotoxicity flow cytometry assay; format: cell-based; settings: overnight incubation, then DEM 3 hours
Method: Cell viability and cytotoxicity were determined by simultaneous staining live and dead cells using a two-color fluorescence assay, the Live/Dead® Viability/Cytotoxicity Kit (Molecular Probes). This assay is used to measure two recognized parameters of cell viability, intracellular esterase activity and plasma integrity. The membrane-impermeant DNA dye ethidium homodimer-1 (EthD-1) was used to identify dead cells whose plasma membrane integrity was disrupted. The membrane-permeant dye calcein-AM was used to label live cells. It penetrates into the cells where it is metabolized by cytoplasmic esterases and becomes a fluorescent but membrane-impermeant probe which is retained in viable cells. Human CEM leukemia cells were incubated overnight in RPMI medium (control) and in the presence of test compound and then treated with DEM for 3 hours. Cells were stained with 0.2 μM calcein-AM and 0.4 μM EthD-1. After 15 minutes, flow cytometry analysis was carried out using excitation at 488 nm. The green-fluorescent (539 nm) FL1-H channel, live-cell population appears in the lower right quadrant and the red-fluorescent (585 nm) FL2-H channel dead-cell population appears in the upper left quadrant (FIG. 11). In each analysis, 10,000 events were recorded. Results obtained were verified in three independent experiments.

[5] = test system: CEM leukemia cells; assay: C11-BODIPY581/591 oxidation in cell culture (lipid peroxidation); format: cell-based, human; settings: 2.5 or 1 μM, pretreatment 4 or 24 hours, glutathione depleted
Method: Lipid peroxidation in CEM leukemia cells was detected by utilizing the oxidant-sensitive lipophilic probe C11 BODIPY^581/591. Briefly, CEM cells (5×10^5 cell/mL) were treated with the test compounds at final concentrations of 1 and 2.5 μM, and incubated at 37° C. for 4 or 24 h in a humidified atmosphere containing 5% CO2 in air. Cells were treated with 500 nM C11 BODIPY^581/591 in phenol red-free RPMI-1640 media and incubated at 37° C. in the dark for 30 minutes. The cells were washed twice with phosphate buffered saline and oxidative stress was induced with 5 mM DEM in phenol red-free RPMI-1640 media for 90 minutes. Treated cells were collected by centrifugation at 300×g for 3 minutes and then washed twice with phosphate buffered saline. Cells were resuspended in 250 μL of phosphate buffered saline and were analyzed by FACS (FACS Calibur flow cytometer, Becton Dickinson) to monitor the change in intensity of the C11 BODIPY^581/591-green (oxidized) fluorescence signal.

[6] = pretreatment 0.5, 1 or 2.5 μM overnight, DEM

Row | SMILES | EC50 ([1]; Homo sapiens, CCRF-CEM) | maintaining mitochondrial membrane potential Δψm [2, 6] | quenching of lipid peroxidation (retention of C11-BODIPY581/591 fluorescence) [3] | protection against lipid peroxidation ([3]; compound 15 μM, AAPH, liposomes) | EC50 [1] | maintaining cell viability (trypan blue exclusion) [1] | maintaining cell viability (Live/Dead kit, flow cytometry) [4] | preserving mitochondrial membrane potential Δψm ([2]; 4-hour pretreatment) | preserving mitochondrial membrane potential Δψm ([2]; 24-hour pretreatment) | maintaining mitochondrial membrane potential Δψm ([2]; FIG. 13, 4 or 24 hours pretreatment) | protection against lipid peroxidation in cells (C11-BODIPY581/591 green fluorescence) [5]
1 | COC1=C(OC)C(=O)C(CCCCCCCCCCO)=C(C)C1=O [idebenone, reference compound] | 0.765 ± 0.036 µM | less effective in this regard |  |  |  |  |  |  |  |  | 
2 | Cc1nc(N(C)C)nc(CCCCCCCCCCO)c1O [Compound A, 2-N,N-dimethylamino-5-hydroxy-4-methyl-6-(10-hydroxydecyl)-pyrimidine] | 0.203 ± 0.023 µM | clearly more effective in maintaining mitochondrial membrane potential; also recorded: very favorable properties | more effective in preventing lipid peroxidation than idebenone and its reduced form (Idebenol); also recorded: much more effective than idebenone and its reduced form in preventing lipid peroxidation | complete protection | 0.202 ± 0.023 µM | quite effective in maintaining cell viability following DEM treatment; also recorded: superior to idebenone in maintaining the viability of DEM-treated cells |  |  |  |  | 
3 | Cc1c(C)c2c(c(C)c1O)CC[C@@](C)(CCC[C@H](C)CCC[C@H](C)CCCC(C)C)O2 [α-tocopherol, reference compound] |  |  |  |  |  | effective in maintaining cell viability following treatment with DEM | effective in maintaining cell viability following treatment with DEM |  |  |  | 
4 | Cc1nc2c(c(CC[C@](C)(O)CCC[C@H](C)CCC[C@H](C)CCCC(C)C)c1O)CCN2C [Compound C, 4-((3R,7R,11R)-3-hydroxy-3,7,11,15-tetramethylhexadecyl)-1,6-dimethyl-2,3-dihydro-1H-pyrrolo[2,3-b]pyridine-5-ol] |  |  | prevent lipid peroxidation in a concentration-dependent fashion with scavenging activity much higher than α-tocopherol; also recorded: prevents lipid peroxidation in a concentration-dependent fashion with scavenging activity much greater than that of α-tocopherol and compound C redox core; also recorded: much more effective than α-tocopherol in quenching lipid peroxidation |  |  | both effective in maintaining cell viability following treatment with DEM, with compound C being somewhat more effective; also recorded: superiority of compound C | both effective in maintaining cell viability following treatment with DEM, with compound C being somewhat more effective; also recorded: superiority of compound C | more effective than tocopherol in preserving mitochondrial membrane potential | comparable to tocopherol | superior to tocopherol in maintaining mitochondrial membrane potential | better protection against lipid peroxidation than α-tocopherol in a concentration and time-dependent fashion; also recorded: clearly superior to α-tocopherol in quenching lipid peroxidation in a time- and dose-dependent fashion
